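1) Cells in 96-well plates. 2) Compound, 48 h, 5 concentrations. 3) Linear interpolation between surrounding doses. 4) Unreached endpoint = highest concentration. GI50 is the concentration that inhibits growth by half.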 Activity calls are given as the source filed them. Cut-off read from the data, not from the text of the source: active = GI50 up to about 1.1 µM and inactive = higher.
What was measured:
Assay in all cases: growth of human tumour cells (NCI), 48 h
[1] = system: CCRF-CEM
[2] = system: NCI/ADR-RES
[3] = system: UACC-257
[4] = system: HL-60
[5] = system: UO-31
[6] = system: MOLT-4
[7] = system: HCT-15
[8] = system: LOX IMVI
[9] = system: CAKI-1
[10] = system: ACHN
[11] = system: RXF 393
[12] = system: HT-29
[13] = system: NCI-H522
[14] = system: OVCAR-4
[15] = system: SN12C
[16] = system: SF-295
[17] = system: HCT-116
[18] = system: TK-10
[19] = system: MDA-N

Row | SMILES | GI50 [1] | GI50 [2] | GI50 [3] | GI50 [4] | GI50 [5] | GI50 [6] | GI50 [7] | GI50 [8] | GI50 [9] | GI50 [10] | GI50 [11] | GI50 [12] | GI50 [13] | GI50 [14] | GI50 [15] | GI50 [16] | GI50 [17] | GI50 [18] | GI50 [19]
1 | CC(=O)/C=C1/C(=O)C(CC(C)C)=C1CC(C)C | 53.8 µM (inactive) | > 100 µM (inactive) | > 100 µM (inactive) | > 100 µM (inactive) | > 100 µM (inactive) | 92.3 µM (inactive) | > 100 µM | > 100 µM (inactive) | > 100 µM (inactive) | > 100 µM (inactive) | > 100 µM (inactive) | > 100 µM (inactive) | > 100 µM (inactive) | > 100 µM (inactive) | > 100 µM (inactive) | > 100 µM (inactive) | > 100 µM (inactive) | > 100 µM (inactive) | > 100 µM (inactive)
2 | CCOC(=O)/C=C(\C(=O)OCC)n1ccc(=O)n(CC(=O)OCC)c1=O | 0.592 µM (active) | 9.57 µM (inactive) | 11.6 µM (inactive) | 0.495 µM (active) | 6.73 µM (inactive) | 1.43 µM (inactive) | 1.83 µM | 2.11 µM (inactive) | 0.638 µM (active) | 1.64 µM (inactive) | 1.26 µM (inactive) | 5.9 µM (inactive) | 1 µM (active) | 3.66 µM (inactive) | 4.84 µM (inactive) | 17.9 µM (inactive) | 1.77 µM (inactive) | 2.57 µM (inactive) | 5.96 µM (inactive)
3 | CC(=O)OCC1OC(On2ccccc2=S)C(OC(C)=O)C(OC(C)=O)C1OC(C)=O (centres undefined) | 0.785 µM (active) | > 100 µM (inactive) | > 100 µM (inactive) | 1.55 µM (inactive) | > 100 µM (inactive) | 33.9 µM (inactive) | > 100 µM | > 100 µM (inactive) | > 100 µM (inactive) | > 100 µM (inactive) | > 100 µM (inactive) | 78.9 µM (inactive) | 49.7 µM (inactive) | > 100 µM (inactive) | > 100 µM (inactive) | > 100 µM (inactive) | > 100 µM (inactive) | > 100 µM (inactive) | > 100 µM (inactive)
4 | COC(=O)C1=C(C)NC(C)=C(C(=O)OC)C1c1cccc(/[N+]([O-])=C/c2ccccc2)c1 | 11 µM (inactive) | 23.2 µM (inactive) | 19 µM (inactive) | 15.3 µM (inactive) | 34.2 µM (inactive) | 23.2 µM (inactive) | 17.1 µM | 33.7 µM (inactive) | 18.1 µM (inactive) | 17.1 µM (inactive) | 16.4 µM (inactive) | 28.3 µM (inactive) | 16.4 µM (inactive) | 16.5 µM (inactive) | > 10 µM (inactive) | > 100 µM (inactive) | 16.7 µM (inactive) | 38.9 µM (inactive) | 17.6 µM (inactive)
5 | Cc1cn(CC2=NCC(O)CN2)c(=O)[nH]c1=O (centres undefined) | > 100 µM (inactive) | > 100 µM (inactive) | > 100 µM (inactive) | > 100 µM (inactive) | > 100 µM (inactive) | > 100 µM (inactive) | > 100 µM | > 100 µM (inactive) | > 100 µM (inactive) | > 100 µM (inactive) | > 100 µM (inactive) | > 100 µM (inactive) | > 100 µM (inactive) | > 100 µM (inactive) | > 100 µM (inactive) | > 100 µM (inactive) | > 100 µM (inactive) | > 100 µM (inactive) | > 100 µM (inactive)
6 | CC(=O)O[C@H]1CC[C@@]2(C)C(=CC[C@H]3[C@@H]4C/C(=C\c5ccncc5)[C@H](OC(C)=O)[C@@]4(C)CC[C@@H]32)C1 | 3.35 µM (inactive) | 4.34 µM (inactive) | 16.9 µM (inactive) | 4.01 µM (inactive) | 8.04 µM (inactive) | 3.04 µM (inactive) | 3.45 µM | 3.48 µM (inactive) | 11.2 µM (inactive) | 15.1 µM (inactive) | 2.73 µM (inactive) | 6.41 µM (inactive) | 3.65 µM (inactive) | 4.65 µM (inactive) | 16.9 µM (inactive) | 5.02 µM (inactive) | 11.9 µM (inactive) | 22.5 µM (inactive) | 18.3 µM (inactive)
7 | Clc1ccc2c(NCCCCN3OC3c3ccccc3)ccnc2c1 (centres undefined) | 2.15 µM (inactive) | 18.5 µM (inactive) | 18.1 µM (inactive) | < 0.01 µM (active) | 14.8 µM (inactive) | 2.15 µM (inactive) | 10.4 µM | 2.13 µM (inactive) | 8.77 µM (inactive) | 9.44 µM (inactive) | 5.55 µM (inactive) | 3.16 µM (inactive) | 6.41 µM (inactive) | 4.27 µM (inactive) | 11.1 µM (inactive) | 12.2 µM (inactive) | 2.06 µM (inactive) | 10.3 µM (inactive) | 5.42 µM (inactive)
8 | Cc1cc(=O)[nH]c2c1C(=O)c1c(C)cc(=O)n(C)c1C2=O | 0.321 µM (active) | 0.0889 µM (active) | 0.0152 µM (active) | 0.153 µM (active) | 0.167 µM (active) | 0.212 µM (active) | 0.123 µM | 0.122 µM (active) | 0.0678 µM (active) | 0.0995 µM (active) | 0.138 µM (active) | 0.043 µM (active) | 0.046 µM (active) | 0.195 µM (active) | 0.074 µM (active) | 0.167 µM (active) | 0.1 µM (active) | 0.192 µM (active) | 0.0184 µM (active)
9 | COC1(OC)CC(CO)(CNc2cc(Cl)nc(N)n2)C1 | > 100 µM (inactive) | > 100 µM (inactive) | 39.1 µM (inactive) | > 100 µM (inactive) | > 100 µM (inactive) | > 100 µM (inactive) | > 100 µM | > 100 µM (inactive) | > 100 µM (inactive) | > 100 µM (inactive) | 55.7 µM (inactive) | > 100 µM (inactive) | > 100 µM (inactive) | > 100 µM (inactive) | > 100 µM (inactive) | > 100 µM (inactive) | > 100 µM (inactive) | > 100 µM (inactive) | > 100 µM (inactive)
10 | COc1cc(C[C@@H](C)N)cc(OC)c1 | > 100 µM (inactive) | > 100 µM (inactive) | > 100 µM (inactive) | > 100 µM (inactive) | > 100 µM (inactive) | > 100 µM (inactive) | > 100 µM | > 100 µM (inactive) | > 100 µM (inactive) | > 100 µM (inactive) | 43.7 µM (inactive) | > 100 µM (inactive) | > 100 µM (inactive) | > 100 µM (inactive) | > 100 µM (inactive) | > 100 µM (inactive) | > 100 µM (inactive) | > 100 µM (inactive) | > 100 µM (inactive)
11 | CC1=C(C(=O)N(C(C)C)C(C)C)CC(C(=O)N(C(C)C)C(C)C)=C(C)N1 | > 100 µM (inactive) | > 100 µM (inactive) | > 100 µM (inactive) | > 100 µM (inactive) | > 100 µM (inactive) | > 100 µM (inactive) | > 100 µM | > 100 µM (inactive) | > 100 µM (inactive) | > 100 µM (inactive) | > 100 µM (inactive) | > 100 µM (inactive) | > 100 µM (inactive) | > 100 µM (inactive) | > 100 µM (inactive) | > 100 µM (inactive) | > 100 µM (inactive) | > 100 µM (inactive) | > 100 µM (inactive)

From ChEMBL document CHEMBL1201862, “PubChem BioAssay data set” (2004)
